Measurements taken from US20030064413A1, “Compositions and methods useful in avidity therapy” (priority 2000, published 2003).
“Also recorded” adds a separate entry of the source. Peptide text beside a SMILES is read from it.

Legend:
[1] = tested on: CD8+ T cells propagated from islets of acutely diabetic NOD mice; experiment: Killing of peptide-pulsed RMA-SKd cells by islet-derived CD8+ T cell lines and clones; assay type: cell-based
Source text: To confirm that the islet associated CD8^+ T cells of most NOD mice contain clones capable of recognizing the NRP/Kd complex, we generated 31 CD8^+ CTL clones from islets of 9 NOD mice, and tested the clones' ability to kill NRP- or TUM-pulsed RMA-SKd cells. Of the 31 clones tested, 14 (45%) were cytotoxic against NRP-, but not TUM-pulsed, RMA-SKd targets (FIGS. 7B and C).

[2] = tested on: naïve or activated 8.3-CD8+ T cells; experiment: Functional testing of NRP mimics (proliferation, cytokine secretion, cytotoxicity, antagonism); assay type: cell-based, mouse (8.3-TCRαβ-transgenic NOD)
Source text: To test the validity of this hypothesis, we produced mimics of NRP capable of engaging the 8.3-TCR (a TCR that is representative of the TCRs used by NRP-reactive CD8^+ T cells in the NOD mouse) with very low or very high affinity (when compared to NRP and NRP-A7). This was done by generating numerous single amino acid mutants of NRP (NRP mimics) and by testing the ability of each mutant to elicit proliferation, cytokine secretion and cytotoxicity of naïve or activated 8.3-CD8^+ T cells. Some of the NRP mimics that were unable to elicit the activation of naïve 8.3-CD8^+ T cells were tested for antagonism. Antagonist mimics are unable to elicit the functional activity of T cells but antagonized the agonistic activity of functional mimics (i.e. NRP and NRP-A7). […] Of these, NRP-A4 was the most powerful and was chosen for further experimentation. […] FIG. 15 compares the agonistic properties of all these peptides on naïve 8.3-CD8^+ T cells.
To test the validity of this hypothesis, we produced mimics of NRP capable of engaging the 8.3-TCR (a TCR that is representative of the TCRs used by NRP-reactive CD8^+ T cells in the NOD mouse) with very low or very high affinity (when compared to NRP and NRP-A7). This was done by generating numerous single amino acid mutants of NRP (NRP mimics) and by testing the ability of each mutant to elicit proliferation, cytokine secretion and cytotoxicity of naïve or activated 8.3-CD8^+ T cells. Some of the NRP mimics that were unable to elicit the activation of naïve 8.3-CD8^+ T cells were tested for antagonism. Antagonist mimics are unable to elicit the functional activity of T cells but antagonized the agonistic activity of functional mimics (i.e. NRP and NRP-A7). […] Peptide-induced responses are color-coded from low, medium, […], high and very high (blue, yellow, green and red, respectively). The data are representative of 3 different experiments.
Of these, NRP-A4 was the most powerful and was chosen for further experimentation. […] FIG. 15 compares the agonistic properties of all these peptides on naïve 8.3-CD8^+ T cells.

[3] = tested on: 8.3-TCR on 8.3-CD8+ T cells; experiment: Peptide/MHC tetramer binding to 8.3-CD8+ T cells; set-up: species or system mouse (8.3-TCRαβ-transgenic NOD)
Source text: (§1) To confirm that these peptides were recognized with different avidity by 8.3-CD8^+ T cells, we produced and tested peptide/MHC tetramers as previously described (39). A tetramer is preferably used in avidity determinations because tetramers bind more strongly than the corresponding monomers, while maintaining the same relative avidities when a plurality of ligands are compared. […] These peptides were recognized with different avidity not only by 8.3-CD8^+ T cells, but also by the polyclonal NRP-reactive CD8^+ T cells that can be propagated from the pancreatic islets of 20 wk-old NOD mice.
(§2) In order to follow the accumulation of antigen-specific CD8^+ T cells in islets of pre-diabetic NOD mice, we generated H-2Kd tetramers containing the peptides NRP, NRP-A7, TUM or INS [LYLVCGERG; an insulin-derived peptide recognized by islet-associated T cells from young NOD mice (38)]. The NRP and NRP-A7 tetramers stained virtually all the splenic CD8^+ T cells from 8.3-TCRαβ-transgenic NOD mice, but <1% of the splenic CD8^+ T cells from NOD mice. The INS tetramer stained the INS-reactive CTL clone G9C8 (38), but neither this tetramer nor the negative control tetramer (TUM) stained the splenic CD8^+ T cells from NOD or 8.3-TCRαβ-transgenic NOD mice (data not shown).
To confirm that these peptides were recognized with different avidity by 8.3-CD8^+ T cells, we produced and tested peptide/MHC tetramers. […] These peptides were recognized with different avidity not only by 8.3-CD8^+ T cells, but also by the polyclonal NRP-reactive CD8^+ T cells that can be propagated from the pancreatic islets of 20 wk-old NOD mice.

[4] = tested on: islet-derived CD8+ T cells; experiment: Peptide/H-2Kd tetramer staining of islet-derived CD8+ T cells; assay type: binding, NOD mice
Source text: as §1
Since tetramer-reactive cells represent a very small fraction of all the islet-associated T cells, we analyzed the presence of tetramer-reactive clonotypes within the cell population that has undergone antigen-driven activation and thus is likely to contain autoreactive specificities. Islets from non-diabetic 5, 9, 15 and 20 wk-old NOD mice were cultured in the presence of rIL-2 for 6-7 d, to selectively expand IL-2R-positive T cells [˜10% of all the islet-associated CD8^+ T cells (30)]. There were age-dependent increases in the number of T cells recovered from NOD islets and in the % of CD8^+ T cells contained within lines. […]

NOD mice = experiment: Development of spontaneous autoimmune diabetes in peptide-treated NOD female mice; assay type: in vivo
Source text: To test whether the hypothesis could in fact predict the different outcomes outlined in Table I, we treated groups of NOD female mice with repeated injections of NRP-A4, NRP-I4 and NRP-V7, and followed the mice for development of spontaneous autoimmune diabetes. T cells were also harvested from the treated mice and tested with various ligand/MHC tetramers to determine the impact of the treatment on T cell populations. […] Since these cells have higher diabetogenic potential (see above), it is likely that their accumulation into islets is the single mechanism that accounts for the accelerated onset of diabetes seen in NRP-I4-treated mice. […]
The hypothesis put forth above predicted that, in vivo, each of these peptides would trigger T cells differently depending on the T cells' avidity for NRP. This is summarized in Table I. To test whether the hypothesis could in fact predict the different outcomes outlined in Table I, we treated groups of NOD female mice with repeated injections of NRP-A4, NRP-I4 and NRP-V7, and followed the mice for development of spontaneous autoimmune diabetes. […] Since these cells have higher diabetogenic potential (see above), it is likely that their accumulation into islets is the single mechanism that accounts for the accelerated onset of diabetes seen in NRP-I4-treated mice.
To test the effect of dosage of the peptide ligands on T cell clonal delection or expansion, we treated groups of NOD female mice with repeated injections of “low” or “high” doses of TUM (negative control), NRP, NRP-A7, NRP-A4, NRP-I4 and NRP-V7. Low concentrations of peptide were prepared by resuspending 100 mg of dry peptide in PBS in the absence of acids. The peptides in these preparations, which were also used in previous Examples, are aggregated, and the effective concentrations were low. Soluble, high concentrations of peptide were prepared by diluting 100 mg of soluble peptide (solubilized in the presence of acid) in PBS. The mice were followed for development of spontaneous autoimmune diabetes.

[5] = tested on: NRP-A7-reactive CD8+ T cells; experiment: Islet-associated CD8+ T cells of peptide-treated NOD mice (tetramer staining, binding kinetics, cytotoxicity); assay type: in vivo
Source text: To test whether the hypothesis could in fact predict the different outcomes outlined in Table I, we treated groups of NOD female mice with repeated injections of NRP-A4, NRP-I4 and NRP-V7, and followed the mice for development of spontaneous autoimmune diabetes. T cells were also harvested from the treated mice and tested with various ligand/MHC tetramers to determine the impact of the treatment on T cell populations. […] Since these cells have higher diabetogenic potential (see above), it is likely that their accumulation into islets is the single mechanism that accounts for the accelerated onset of diabetes seen in NRP-I4-treated mice.
To ascertain whether the NRP-A7 treatment had induced the deletion of NRP-A7-reactive CD8^+ T cells, we examined islets of peptide-treated, non-diabetic 32 wk-old mice for the presence of this T cell population. […] To determine whether this resulted from the absence of clonotypes bearing high affinity TCRs for NRP-A7, we compared the kinetics of NRP-A7 tetramer binding to CD8^+ T cells derived from peptide-treated mice. […] Since treatment with NRP-A7 also halted the progression from benign to pernicious islet inflammation, we concluded that development of IDDM in NOD mice requires the avidity maturation of the NRP-A7-reactive CD8^+ T cell population.
The effect of the peptides on T cell populations was also determined.

8.3-CD8+ T cells = experiment: Repeated peptide administration to 8.3-TCRαβ-transgenic NOD mice; assay type: in vivo; settings: repeated administration via i.p. and f.p. routes; unpublished data
[6] = tested on: INS-reactive CTL clone G9C8; experiment: Tetramer staining of CTL clone G9C8; assay type: binding; settings: H-2Kd tetramer
Source text: as §2

CC(C)C[C@H](NC(=O)[C@H](Cc1ccccc1)NC(=O)[C@H](Cc1c[nH]c2ccccc12)NC(=O)[C@H](CC(N)=O)NC(=O)[C@H](C)NC(=O)[C@H](CCCCN)NC(=O)[C@H](CC(N)=O)NC(=O)[C@H](Cc1ccc(O)cc1)NC(=O)[C@@H](N)CCCCN)C(=O)O [NRP, KYNKANWFL] (H-KYNKANWFL-OH; N-terminus and C-terminus assumed)
islet-derived CD8+ CTL clones cytotoxic against peptide-pulsed RMA-SKd targets ([1]; 14 of 31 clones from 9 NOD mice): 45%

KYNKANAFL [NRP-A7]
functional class of the peptide on 8.3-CD8+ T cells [2]: super-agonist
Function ([2]; Table I): superagonist
Function (of Function/Avidity) ([2]; Table II): superagonist
agonistic/antagonistic activity, comparative statement ([2]; naive 8.3-CD8+ T cells): superior agonistic properties
avidity class of the peptide [3]: high avidity
Avidity (of Function/Avidity) ([3]; Table II): high
avidity of tetramer binding to 8.3-CD8+ T cells ([3]; peptide/MHC tetramer, proportional to fluorescence intensity of stained T cells): increased avidity
splenic CD8+ T cells stained by tetramer ([3]; splenic CD8+ T cells from 8.3-TCRαβ-transgenic NOD mice): virtually all
size of the tetramer-reactive CD8+ T cell population in islets ([4]; by 15 wk, islets cultured with rIL-2 6-7 d): ~18%
number of islet-derived CD8+ T cells bound by tetramer, comparative ([4]; islets of 20 wk-old NOD mice): more cells bound the NRP-A7 than the NRP tetramers
islet-associated CD8+ T cell clones recognizing the peptide ([1]; reference 37): 45%
islet-associated CD8+ T cell lines recognizing the peptide ([1]; reference 37): 87%
Action (high dose) (NOD mice; Table II, effect on diabetes, high dose, repeated injections): No effect
Action (low dose) (NOD mice; Table II, effect on diabetes, low dose, repeated injections): protective
effect on diabetes at high dose/concentration (NOD mice; high concentration (acid-solubilized peptide in PBS), repeated injections): no effect; also recorded: rather ineffective; also recorded: did not efficiently protect the mice from diabetes
effect on diabetes at low dose/concentration (NOD mice; low concentration (aggregated peptide in PBS), repeated injections): anti-diabetogenic; also recorded: significant protective effect; also recorded: diabetes resistance
development of IDDM/diabetes in treated NOD mice (NOD mice; repeated injections (100 μg in PBS i.p. in Example 6), low dosage according to b141): highly protected
cytotoxicity of islet-derived CD8+ T cells of treated mice ([5]; NRP-A7-pulsed RMA-SKd targets): less cytotoxic to NRP-A7-pulsed, RMA-SKd targets than those derived from NRP- or control peptide-treated mice
insulin 15-23-reactive CD8+ T cells in islets of treated mice ([5]; b198: high concentration NRP-A7, low and high concentrations NRP-V7): significantly increased percentages of insulin 15-23 tetramer-reactive CD8^+ T-cells
effect on NRP-A7-reactive T cells in islets, high concentration ([5]; high concentration): nearly complete deletion of all NRP-A7-reactive cells
effect on NRP-A7-reactive T cells in islets, low concentration ([5]; low concentration): fostered the accumulation of low avidity NRP-A7-reactive T-cells in islets
effect of treatment on high/low avidity NRP-reactive CD8+ T cell subpopulations (conclusion) ([5]; repeated injections): blunted the avidity maturation of the NRP-A7-reactive CD8^+ T cell population; also recorded: promoted the expansion of the low avidity T cell subpopulation; also recorded: selectively eliminated those NRP-A7-reactive CD8^+ T cells expressing high affinity TCRs for NRP-A7
NRP/NRP-A7 tetramer-reactive CD8+ T cells in islets of treated mice ([5]; repeated injections, low dosage according to b141): greater numbers of NRP-A7 tetramer-reactive cells than control peptide-treated mice
effect on 8.3-CD8+ T cells (8.3-CD8+ T cells): induced the deletion of 8.3-CD8^+ T cells

LYLVCGERG [INS, insulin-derived peptide recognized by islet-associated T cells from young NOD mice]
tetramer staining of CTL clone G9C8 [6]: stained
